From article PMC10682951, “Structure-function and rational design of a spider toxin Ssp1a at human voltage-gated sodium channel subtypes” (Frontiers in Pharmacology, 2023) come the findings set out here.

What is called IC50 is the point on the concentration scale where inhibition reaches its midpoint.

SMILES strings stand for the structures. Bridge positions count the residues as written; N and C are the ends. Peptide text beside a SMILES is read from it.

Holding throughout (format): cell-based
Test [1] has as its target T1, hNaV1.2 (Homo sapiens, UniProt Q99250).
T1 construct: host or cells: HEK293
The experiment in a line: Automated whole-cell patch-clamp (QPatch 16X), hNaV1.2. The conditions noted are these: for IC50: HEK293 cells expressing hNaV1.2 + β1 subunit, QPatch 16X, holding −80 mV, step to 0 mV, peptide incubated 2 min, 0.1% BSA, mean, SEM and n (2-7). The protocol: (§1) Human embryonic kidney 293 (HEK293) cells stably expressing recombinant hNaV1.2, hNaV1.3 and hNaV1.7 and the β1 auxiliary subunit (Scottish Biomedical Drug Discovery, Glasgow, UK) were cultured in Minimal Essential medium (MEM) (Sigma-Aldrich, MO, United States) supplemented with 10% v/v FBS-New Zealand origin (Assay Matrix), 2 mM L-glutamine and selection antibiotics as per manufacturer’s recommendation. The HEK293 cells heterologously expressing mNaV1.7 and F813G-mNaV1.7 were generously provided by Prof Irina Vetter and were cultured in Minimal Essential medium (MEM) (Sigma-Aldrich, MO, United States) supplemented with 10% v/v FBS-New Zealand origin (Assay Matrix), 2 mM L-glutamine and hygromycin 100 μg/mL.
(§2) NaV channel currents from HEK293 cells stably expressing NaV subtypes and the β1 auxiliary subunit were recorded using an automated whole-cell patch clamp system QPatch 16X (Sophion Bioscience A/S, Ballerup, Denmark). As per the manufacturer’s guidelines, the cells were cultured for 48 h to achieve ∼80% confluency, detached using Detachin (Genlantis) and resuspended to 5 × 10^6 cells/mL in serum free media [CHO-cell SFM (Life Technologies), 25 mM HEPES and 100 U/mL penicillin/streptomycin]. The extracellular solution comprised (in mM) 1 CaCl2, 1 MgCl2, 5 HEPES, 3 KCl, 140 NaCl and 20 TEA-Cl, with the pH adjusted to 7.3 with NaOH. The intracellular solution comprised (in mM) 140 CsF, 1 EGTA, 5 CsOH, 10 HEPES and 10 NaCl, with the pH adjusted to 7.3 with CsOH. The osmolarity of both solutions were adjusted to 320 mOsm with sucrose. Compounds were prepared in extracellular solution containing 0.1% bovine serum albumin (Sigma-Aldrich). To obtain the dose-response curves, cells were maintained at a holding potential −80 mV and Na^+ currents were elicited by […] voltage steps to 0 mV from a −120 mV conditioning pulse applied for […]. Increasing concentrations of the peptide were incubated with the cells at the holding potential for 2 min before the voltage protocol was applied.
(§3) The experimental data were analysed using QPatch Assay software v5.6.4 and GraphPad Prism 7.0 using a four-parameter Hill equation [Y = Bottom + (Top—Bottom)/(1 + 10^(Log IC50—X)* Hillslope)] to fit concentration response curves by non-linear regression analysis and Student’s t-test. Data are presented as means ± standard error of mean (SEM) with number of independent experiments stated and p < 0.05 is considered statistically significant. Statistically insignificant shift in the activity is denoted by “little” while small but statistically significant shift in the activity is denoted by “slight” throughout the manuscript.

Test [2] concerns the target T2, hNaV1.7 (Homo sapiens, UniProt Q15858).
T2 construct: host or cells: HEK293
The experiment in a line: Automated whole-cell patch-clamp (QPatch 16X), hNaV1.7. The conditions noted are these: HEK293 cells expressing hNaV1.7 + β1 subunit; QPatch 16X; holding −80 mV, step to 0 mV; peptide incubated 2 min; 0.1% BSA; mean, SEM and n (3-9). On the procedure:
as §1, §2, §3
(In patch-clamp work, channel activity is measured electrically.)

The target of test [3] is T3, hNaV1.3 (Homo sapiens, UniProt Q9NY46).
T3 construct: host or cells: HEK293
The experiment in a line: Automated whole-cell patch-clamp (QPatch 16X), hNaV1.3. The conditions noted are these: HEK293 cells expressing hNaV1.3 + β1 subunit; QPatch 16X; holding −80 mV, step to 0 mV; peptide incubated 2 min; 0.1% BSA; mean, SEM and n (3-12). On the procedure: as §1, §2, §3

T3 sequence (Q9NY46 whole entry): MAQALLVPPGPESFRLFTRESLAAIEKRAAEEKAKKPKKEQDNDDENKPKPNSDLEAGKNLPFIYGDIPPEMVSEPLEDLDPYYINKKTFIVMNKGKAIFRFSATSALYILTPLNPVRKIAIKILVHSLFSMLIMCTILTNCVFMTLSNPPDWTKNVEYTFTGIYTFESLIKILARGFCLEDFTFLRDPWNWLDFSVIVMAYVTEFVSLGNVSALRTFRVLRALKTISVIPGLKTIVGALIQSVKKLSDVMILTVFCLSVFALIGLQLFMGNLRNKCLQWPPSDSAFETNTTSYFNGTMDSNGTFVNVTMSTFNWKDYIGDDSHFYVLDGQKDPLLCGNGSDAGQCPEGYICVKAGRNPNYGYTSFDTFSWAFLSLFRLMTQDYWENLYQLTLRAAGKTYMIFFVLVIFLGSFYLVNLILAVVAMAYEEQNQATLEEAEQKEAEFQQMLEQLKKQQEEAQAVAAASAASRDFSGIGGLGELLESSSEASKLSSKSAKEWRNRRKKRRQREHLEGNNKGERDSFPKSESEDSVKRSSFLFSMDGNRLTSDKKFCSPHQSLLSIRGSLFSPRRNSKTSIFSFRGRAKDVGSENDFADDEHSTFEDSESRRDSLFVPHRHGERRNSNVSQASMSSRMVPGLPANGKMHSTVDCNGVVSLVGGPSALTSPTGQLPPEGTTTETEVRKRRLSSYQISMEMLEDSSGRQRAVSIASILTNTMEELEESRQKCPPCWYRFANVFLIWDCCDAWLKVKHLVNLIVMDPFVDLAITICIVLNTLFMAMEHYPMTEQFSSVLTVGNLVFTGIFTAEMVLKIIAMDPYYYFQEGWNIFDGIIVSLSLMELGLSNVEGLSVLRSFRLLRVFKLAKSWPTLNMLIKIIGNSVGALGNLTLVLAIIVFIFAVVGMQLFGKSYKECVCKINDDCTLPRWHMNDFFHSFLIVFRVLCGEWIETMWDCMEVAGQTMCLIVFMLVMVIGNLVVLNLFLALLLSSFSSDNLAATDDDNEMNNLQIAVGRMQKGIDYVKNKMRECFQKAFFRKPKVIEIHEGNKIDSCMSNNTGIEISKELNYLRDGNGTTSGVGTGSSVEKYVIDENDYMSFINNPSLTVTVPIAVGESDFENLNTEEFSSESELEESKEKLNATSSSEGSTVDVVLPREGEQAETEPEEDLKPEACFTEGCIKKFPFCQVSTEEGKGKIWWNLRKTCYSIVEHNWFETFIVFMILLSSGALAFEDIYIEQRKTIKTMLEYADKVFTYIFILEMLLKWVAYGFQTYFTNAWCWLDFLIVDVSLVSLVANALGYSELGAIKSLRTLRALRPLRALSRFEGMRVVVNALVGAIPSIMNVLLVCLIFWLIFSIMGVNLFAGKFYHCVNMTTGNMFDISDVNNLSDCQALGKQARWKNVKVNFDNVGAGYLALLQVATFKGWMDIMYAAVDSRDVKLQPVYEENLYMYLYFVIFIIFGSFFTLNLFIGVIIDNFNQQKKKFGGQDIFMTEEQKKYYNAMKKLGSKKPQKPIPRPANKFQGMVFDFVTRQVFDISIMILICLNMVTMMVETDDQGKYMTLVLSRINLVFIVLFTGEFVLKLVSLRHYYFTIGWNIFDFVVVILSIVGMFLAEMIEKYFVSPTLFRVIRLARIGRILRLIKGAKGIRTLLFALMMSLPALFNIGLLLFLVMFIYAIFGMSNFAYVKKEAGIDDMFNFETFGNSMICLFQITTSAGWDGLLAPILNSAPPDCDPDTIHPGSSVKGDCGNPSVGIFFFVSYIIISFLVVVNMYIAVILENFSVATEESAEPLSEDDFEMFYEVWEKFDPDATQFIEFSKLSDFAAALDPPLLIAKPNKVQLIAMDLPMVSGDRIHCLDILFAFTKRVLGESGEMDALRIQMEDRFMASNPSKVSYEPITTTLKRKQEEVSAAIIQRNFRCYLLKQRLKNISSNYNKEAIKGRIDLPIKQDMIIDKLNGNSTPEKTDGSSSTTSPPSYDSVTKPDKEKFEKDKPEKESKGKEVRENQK
T3 sequence (Q07699 19-218, further chain): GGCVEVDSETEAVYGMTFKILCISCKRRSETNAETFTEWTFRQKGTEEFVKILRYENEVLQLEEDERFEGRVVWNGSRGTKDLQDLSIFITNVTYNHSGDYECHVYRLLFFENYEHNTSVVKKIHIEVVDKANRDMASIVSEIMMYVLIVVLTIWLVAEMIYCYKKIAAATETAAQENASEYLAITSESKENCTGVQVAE
T1 sequence (Q07699 19-218): as the sequence (Q07699 19-218, further chain) above
T1 sequence (Q99250 whole entry): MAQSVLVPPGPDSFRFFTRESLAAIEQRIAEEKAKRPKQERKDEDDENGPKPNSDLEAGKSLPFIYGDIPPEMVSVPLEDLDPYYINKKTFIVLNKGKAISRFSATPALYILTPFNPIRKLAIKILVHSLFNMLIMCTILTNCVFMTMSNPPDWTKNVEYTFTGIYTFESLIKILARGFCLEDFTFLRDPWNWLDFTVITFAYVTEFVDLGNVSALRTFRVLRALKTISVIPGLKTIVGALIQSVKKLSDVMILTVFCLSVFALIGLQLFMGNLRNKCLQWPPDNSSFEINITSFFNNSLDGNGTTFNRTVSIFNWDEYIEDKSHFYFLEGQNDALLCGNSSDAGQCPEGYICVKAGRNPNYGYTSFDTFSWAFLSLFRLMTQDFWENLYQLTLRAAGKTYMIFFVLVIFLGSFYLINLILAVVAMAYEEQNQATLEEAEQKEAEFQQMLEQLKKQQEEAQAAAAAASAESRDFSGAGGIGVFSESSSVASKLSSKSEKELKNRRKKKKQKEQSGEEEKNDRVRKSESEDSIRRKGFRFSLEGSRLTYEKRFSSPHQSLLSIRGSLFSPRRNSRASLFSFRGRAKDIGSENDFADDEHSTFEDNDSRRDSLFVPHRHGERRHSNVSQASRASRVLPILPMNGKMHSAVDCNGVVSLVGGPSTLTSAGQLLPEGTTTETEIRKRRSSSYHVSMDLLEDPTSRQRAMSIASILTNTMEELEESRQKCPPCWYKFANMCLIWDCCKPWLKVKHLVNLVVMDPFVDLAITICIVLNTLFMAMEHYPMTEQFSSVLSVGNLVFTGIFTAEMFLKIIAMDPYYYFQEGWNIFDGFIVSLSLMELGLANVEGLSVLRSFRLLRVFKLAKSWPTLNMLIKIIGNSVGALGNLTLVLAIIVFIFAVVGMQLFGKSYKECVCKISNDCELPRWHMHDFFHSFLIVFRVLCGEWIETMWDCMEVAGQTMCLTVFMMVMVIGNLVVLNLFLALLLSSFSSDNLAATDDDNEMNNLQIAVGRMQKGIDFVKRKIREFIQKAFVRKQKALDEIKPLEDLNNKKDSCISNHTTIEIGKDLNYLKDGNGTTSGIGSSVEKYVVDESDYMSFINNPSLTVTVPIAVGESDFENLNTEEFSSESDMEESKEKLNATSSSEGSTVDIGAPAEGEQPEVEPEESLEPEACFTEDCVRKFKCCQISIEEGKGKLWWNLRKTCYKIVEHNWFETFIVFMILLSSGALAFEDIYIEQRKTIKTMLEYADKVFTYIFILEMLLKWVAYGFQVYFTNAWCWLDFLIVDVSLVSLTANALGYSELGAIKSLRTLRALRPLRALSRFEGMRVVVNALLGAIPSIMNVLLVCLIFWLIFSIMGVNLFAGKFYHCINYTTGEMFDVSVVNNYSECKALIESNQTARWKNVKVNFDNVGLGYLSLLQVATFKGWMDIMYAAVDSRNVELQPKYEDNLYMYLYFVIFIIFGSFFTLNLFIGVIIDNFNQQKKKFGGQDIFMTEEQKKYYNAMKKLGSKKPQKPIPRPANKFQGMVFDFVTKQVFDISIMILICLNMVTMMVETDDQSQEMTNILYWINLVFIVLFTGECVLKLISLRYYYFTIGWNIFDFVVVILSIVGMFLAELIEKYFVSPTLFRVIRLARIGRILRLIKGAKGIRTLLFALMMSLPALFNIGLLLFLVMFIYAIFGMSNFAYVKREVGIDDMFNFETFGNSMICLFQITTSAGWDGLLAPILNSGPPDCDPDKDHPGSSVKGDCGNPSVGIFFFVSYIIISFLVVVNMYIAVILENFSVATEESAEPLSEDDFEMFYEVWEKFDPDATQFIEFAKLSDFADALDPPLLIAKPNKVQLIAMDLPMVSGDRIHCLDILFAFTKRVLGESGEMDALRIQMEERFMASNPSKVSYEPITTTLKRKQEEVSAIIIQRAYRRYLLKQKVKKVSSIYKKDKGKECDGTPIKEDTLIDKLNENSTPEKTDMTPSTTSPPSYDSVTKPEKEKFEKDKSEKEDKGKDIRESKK

On to `CC(C)C[C@H](NC(=O)[C@H](CO)NC(=O)[C@H](Cc1ccc(O)cc1)NC(=O)[C@H](CCCNC(=N)N)NC(=O)[C@@H]1CSSC[C@@H]2NC(=O)[C@H](CCCCN)NC(=O)[C@H](CC(N)=O)NC(=O)[C@H](CC(N)=O)NC(=O)[C@H](CC(N)=O)NC(=O)[C@@H]3CCCN3C(=O)[C@H](CC(=O)O)NC(=O)[C@@H]3CSSC[C@H](NC(=O)[C@H](C(C)C)NC(=O)[C@H](Cc4ccc(O)cc4)NC(=O)CNC(=O)[C@H](CCC(=O)O)NC(=O)[C@H](CSSC[C@H](NC(=O)[C@H](CC(=O)O)NC(=O)CN)C(=O)N[C@@H](CC(C)C)C(=O)NCC(=O)N[C@@H](Cc4c[nH]c5ccccc45)C(=O)N[C@@H](Cc4ccccc4)C(=O)N[C@@H](CO)C(=O)NCC(=O)N3)NC2=O)C(=O)N[C@@H](Cc2c[nH]cn2)C(=O)N[C@@H](Cc2c[nH]c3ccccc23)C(=O)N[C@@H](CCCCN)C(=O)N[C@@H](Cc2ccc(O)cc2)C(=O)N2CCC[C@H]2C(=O)N[C@@H](Cc2c[nH]c3ccccc23)C(=O)N1)C(=O)O` [D32S], for which the figures for the IC50 in test [1], in test [2] and in test [3] were 97 nM, 101 nM and 137 nM, respectively.
In the case of `CC(C)C[C@H](NC(=O)[C@H](Cc1ccc(O)cc1)NC(=O)[C@H](Cc1ccc(O)cc1)NC(=O)[C@H](CCCNC(=N)N)NC(=O)[C@@H]1CSSC[C@@H]2NC(=O)[C@H](CCCCN)NC(=O)[C@H](CC(N)=O)NC(=O)[C@H](CC(N)=O)NC(=O)[C@H](CC(N)=O)NC(=O)[C@@H]3CCCN3C(=O)[C@H](CC(=O)O)NC(=O)[C@@H]3CSSC[C@H](NC(=O)[C@H](C(C)C)NC(=O)[C@H](Cc4ccc(O)cc4)NC(=O)CNC(=O)[C@H](CCC(=O)O)NC(=O)[C@H](CSSC[C@H](NC(=O)[C@H](CC(=O)O)NC(=O)CN)C(=O)N[C@@H](CC(C)C)C(=O)NCC(=O)N[C@@H](Cc4c[nH]c5ccccc45)C(=O)N[C@@H](Cc4ccccc4)C(=O)N[C@@H](CO)C(=O)NCC(=O)N3)NC2=O)C(=O)N[C@@H](Cc2c[nH]cn2)C(=O)N[C@@H](Cc2c[nH]c3ccccc23)C(=O)N[C@@H](CCCCN)C(=O)N[C@@H](Cc2ccc(O)cc2)C(=O)N2CCC[C@H]2C(=O)N[C@@H](Cc2c[nH]c3ccccc23)C(=O)N1)C(=O)O` [D32Y], the IC50 in test [1] was determined as 75 nM; in test [2], 110 nM; in test [3], 417 nM. Further, in test [1] (ratio of potencies hNaV1.3 / hNaV1.2), the “hNaV1.2-selectivity against hNaV1.3” value was approximately 6 fold.
On to `CC(C)C[C@H](NC(=O)[C@H](CC(=O)O)NC(=O)[C@H](Cc1ccc(O)cc1)NC(=O)[C@H](CCCNC(=N)N)NC(=O)[C@@H]1CSSC[C@@H]2NC(=O)[C@H](CCCCN)NC(=O)[C@H](CC(N)=O)NC(=O)[C@H](CC(N)=O)NC(=O)[C@H](CC(N)=O)NC(=O)[C@@H]3CCCN3C(=O)[C@H](CC(=O)O)NC(=O)[C@@H]3CSSC[C@H](NC(=O)[C@H](C(C)C)NC(=O)[C@H](Cc4ccc(O)cc4)NC(=O)CNC(=O)[C@H](Cc4ccccc4)NC(=O)[C@H](CSSC[C@H](NC(=O)[C@H](CC(=O)O)NC(=O)CN)C(=O)N[C@@H](CC(C)C)C(=O)NCC(=O)N[C@@H](Cc4c[nH]c5ccccc45)C(=O)N[C@@H](Cc4ccccc4)C(=O)N[C@@H](CO)C(=O)NCC(=O)N3)NC2=O)C(=O)N[C@@H](Cc2c[nH]cn2)C(=O)N[C@@H](Cc2c[nH]c3ccccc23)C(=O)N[C@@H](CCCCN)C(=O)N[C@@H](Cc2ccc(O)cc2)C(=O)N2CCC[C@H]2C(=O)N[C@@H](Cc2c[nH]c3ccccc23)C(=O)N1)C(=O)O` [E18F], for which the figures for the IC50 in test [1], in test [2] and in test [3] were 232 nM, 171 nM and 395 nM, respectively.
As for `CC(C)C[C@H](NC(=O)[C@H](CC(=O)O)NC(=O)[C@H](Cc1ccc(O)cc1)NC(=O)[C@H](CCCNC(=N)N)NC(=O)[C@@H]1CSSC[C@@H]2NC(=O)[C@H](CCCCN)NC(=O)[C@H](CC(N)=O)NC(=O)[C@H](CC(N)=O)NC(=O)[C@H](CC(N)=O)NC(=O)[C@@H]3CCCN3C(=O)[C@H](CC(=O)O)NC(=O)[C@@H]3CSSC[C@H](NC(=O)[C@H](C(C)C)NC(=O)[C@H](Cc4ccc(O)cc4)NC(=O)CNC(=O)CNC(=O)[C@H](CSSC[C@H](NC(=O)[C@H](CC(=O)O)NC(=O)CN)C(=O)N[C@@H](CC(C)C)C(=O)NCC(=O)N[C@@H](Cc4c[nH]c5ccccc45)C(=O)N[C@@H](Cc4ccccc4)C(=O)N[C@@H](CO)C(=O)NCC(=O)N3)NC2=O)C(=O)N[C@@H](Cc2c[nH]cn2)C(=O)N[C@@H](Cc2c[nH]c3ccccc23)C(=O)N[C@@H](CCCCN)C(=O)N[C@@H](Cc2ccc(O)cc2)C(=O)N2CCC[C@H]2C(=O)N[C@@H](Cc2c[nH]c3ccccc23)C(=O)N1)C(=O)O` [E18G], the IC50 in test [1] is 119 nM; in test [2], 276 nM; in test [3] it was 406 nM.
On the same counts, the results for `CC(C)C[C@H](NC(=O)[C@H](CC(=O)O)NC(=O)[C@H](Cc1ccc(O)cc1)NC(=O)[C@H](CCCNC(=N)N)NC(=O)[C@@H]1CSSC[C@@H]2NC(=O)[C@H](CCCCN)NC(=O)[C@H](CC(N)=O)NC(=O)[C@H](CC(N)=O)NC(=O)[C@H](CC(N)=O)NC(=O)[C@@H]3CCCN3C(=O)[C@H](CC(=O)O)NC(=O)[C@@H]3CSSC[C@H](NC(=O)[C@H](C(C)C)NC(=O)[C@H](Cc4ccc(O)cc4)NC(=O)CNC(=O)[C@H](CCCCN)NC(=O)[C@H](CSSC[C@H](NC(=O)[C@H](CC(=O)O)NC(=O)CN)C(=O)N[C@@H](CC(C)C)C(=O)NCC(=O)N[C@@H](Cc4c[nH]c5ccccc45)C(=O)N[C@@H](Cc4ccccc4)C(=O)N[C@@H](CCCNC(=N)N)C(=O)NCC(=O)N3)NC2=O)C(=O)N[C@@H](Cc2c[nH]cn2)C(=O)N[C@@H](Cc2c[nH]c3ccccc23)C(=O)N[C@@H](CCCCN)C(=O)N[C@@H](Cc2ccc(O)cc2)C(=O)N2CCC[C@H]2C(=O)N[C@@H](Cc2c[nH]c3ccccc23)C(=O)N1)C(=O)O` [E18K/S7R] (H-GDCLGWFRGCDPNNNKCCKGYVCHWKYPWCRYDL-OH; disulfide 3-18, 10-23, 17-30) are 40 nM, 40 nM and 59 nM.
On the same counts, the results for `CC(C)C[C@H](NC(=O)[C@H](CC(=O)O)NC(=O)[C@H](Cc1ccc(O)cc1)NC(=O)[C@H](CCCNC(=N)N)NC(=O)[C@@H]1CSSC[C@@H]2NC(=O)[C@H](CCCCN)NC(=O)[C@H](CC(N)=O)NC(=O)[C@H](CC(N)=O)NC(=O)[C@H](CC(N)=O)NC(=O)[C@@H]3CCCN3C(=O)[C@H](CC(=O)O)NC(=O)[C@@H]3CSSC[C@H](NC(=O)[C@H](C(C)C)NC(=O)[C@H](Cc4ccc(O)cc4)NC(=O)CNC(=O)[C@H](CCCCN)NC(=O)[C@H](CSSC[C@H](NC(=O)[C@H](CC(=O)O)NC(=O)CN)C(=O)N[C@@H](CC(C)C)C(=O)NCC(=O)N[C@@H](Cc4c[nH]c5ccccc45)C(=O)N[C@@H](Cc4ccccc4)C(=O)N[C@@H](CO)C(=O)NCC(=O)N3)NC2=O)C(=O)N[C@@H](Cc2c[nH]cn2)C(=O)N[C@@H](Cc2c[nH]c3ccccc23)C(=O)N[C@@H](CCCCN)C(=O)N[C@@H](Cc2ccc(O)cc2)C(=O)N2CCC[C@H]2C(=O)N[C@@H](Cc2c[nH]c3ccccc23)C(=O)N1)C(=O)O` [E18K] are 72 nM, 107 nM and 313 nM.
